According to patent US9232796B2, “Herbicidal compositions comprising 4-amino-3-chloro-5-fluoro-6-(4-chloro-2-fluoro-3-methoxyphenyl) pyridine-2-carboxylic acid or a derivative thereof and acetyl-CoA carboxylase (ACCase) inhibitors” (DOW AGROSCIENCES LLC, priority 2012, dated 2016):

Tests used:
Assay in all cases: Example IV postemergence foliar-applied, greenhouse, cereal crops weeds
[1] = tested on: PHAMI; assay type: in vivo, Phalaris minor Retz.
Protocol: (§1) Seeds of the desired test plant species were planted in Sun Gro MetroMix® 306 planting mixture, which typically has a pH of 6.0 to 6.8 and an organic matter content of about 30 percent, in plastic pots with a surface area of 103.2 square centimeters (cm^2). […] The plants were grown for 7-36 days in a greenhouse with an approximate 14 hour photoperiod which was maintained at about 18° C. during the day and about 17° C. during the night. Nutrients and water were added on a regular basis and supplemental lighting was provided with overhead metal halide 1000-Watt lamps as necessary. The plants were employed for testing when they reached the second or third true leaf stage.
(§2) Treatments consisted of the benzyl ester of 4-amino-3-chloro-5-fluoro-6-(4-chloro-2-fluoro-3-methoxy-phenyl)pyridine-2-carboxylic acid (Compound A), formulated as an SC, a second cereal herbicide alone and then both in combination.
(§3) Other herbicidal components were applied on an active ingredient basis and included acetyl-CoA carboxylase (ACCase)-inhibiting herbicides clodinafop-propargyl, fenoxaprop-P-ethyl, pinoxaden and tralkoxydim.
(§4) Measured aliquots of benzyl ester of 4-amino-3-chloro-5-fluoro-6-(4-chloro-2-fluoro-3-methoxy-phenyl)pyridine-2-carboxylic acid (Compound A) were placed in 25 milliliter (mL) glass vials and diluted in a volume of 1.25% (v/v) Agri-Dex® crop oil concentrate to obtain stock solutions. Compound requirements are based upon a 12 mL application volume at a rate of 187 liters per hectare (L/ha). […] Formulated compounds were applied to the plant material with an overhead Mandel track sprayer equipped with an 8002E nozzle calibrated to deliver 187 L/ha over an application area of 0.503 square meters (m^2) at a spray height of 18 inches (46 cm) above average plant canopy. Control plants were sprayed in the same manner with the solvent blank.
(§5) The treated plants and control plants were placed in a greenhouse as described above and watered by sub-irrigation to prevent wash-off of the test compounds. After 20-22 days, the condition of the test plants as compared with that of the control plants was determined visually and scored on a scale of 0 to 100 percent where 0 corresponds to no injury and 100 corresponds to complete kill.
(§6) Colby's equation was used to determine the herbicidal effects expected from the mixtures (Colby, S. R. 1967. Calculation of the synergistic and antagonistic response of herbicide combinations. Weeds 15:20-22.).
(§7) The following equation was used to calculate the expected activity of mixtures containing two active ingredients, A and B: Expected=A+B−(A×B/100)

[2] = tested on: KCHSC; assay type: in vivo, Kochia scoparia (L.) Schrad.
Protocol: as §1, §2, §3, §4, §5, §6, §7

[3] = tested on: LOLMU; assay type: in vivo, Lolium multiflorum Lam.
Protocol: Seeds of the desired test plant species were planted in Sun Gro MetroMix® 306 planting mixture, which typically has a pH of 6.0 to 6.8 and an organic matter content of about 30 percent, in plastic pots with a surface area of 103.2 square centimeters (cm^2). When required to ensure good germination and healthy plants, a fungicide treatment and/or other chemical or physical treatment was applied. The plants were grown for 7-36 days in a greenhouse with an approximate 14 hour photoperiod which was maintained at about 18° C. during the day and about 17° C. during the night. Nutrients and water were added on a regular basis and supplemental lighting was provided with overhead metal halide 1000-Watt lamps as necessary. The plants were employed for testing when they reached the second or third true leaf stage.
as §2, §3
Measured aliquots of benzyl ester of 4-amino-3-chloro-5-fluoro-6-(4-chloro-2-fluoro-3-methoxy-phenyl)pyridine-2-carboxylic acid (Compound A) were placed in 25 milliliter (mL) glass vials and diluted in a volume of 1.25% (v/v) Agri-Dex® crop oil concentrate to obtain stock solutions. Compound requirements are based upon a 12 mL application volume at a rate of 187 liters per hectare (L/ha). Spray solutions of the second cereal herbicide and experimental compound mixtures were prepared by adding the stock solutions to the appropriate amount of dilution solution to form 12 mL spray solution with active ingredients in two- and three-way combinations. Formulated compounds were applied to the plant material with an overhead Mandel track sprayer equipped with an 8002E nozzle calibrated to deliver 187 L/ha over an application area of 0.503 square meters (m^2) at a spray height of 18 inches (46 cm) above average plant canopy. Control plants were sprayed in the same manner with the solvent blank.
as §5, §6, §7

[4] = Compound A Benzyl Ester 5 gai/ha
[5] = Compound A Benzyl Ester 10 gai/ha

COc1c(Cl)ccc(-c2nc(C(=O)OCc3ccccc3)c(Cl)c(N)c2F)c1F [Compound A Benzyl Ester, benzyl ester of 4-amino-3-chloro-5-fluoro-6-(4-chloro-2-fluoro-3-methoxy-phenyl)pyridine-2-carboxylic acid]
Visual Weed Control (%) - 21 DAA PHAMI Obs [1, 4]: 0%
Visual Weed Control (%) - 21 DAA PHAMI Obs [1, 5]: 0%
Visual Weed Control (%) - 21 DAA KCHSC Obs [2, 4]: 20%
Visual Weed Control (%) - 21 DAA KCHSC Obs [2, 5]: 30%
Visual Weed Control (%) - 21 DAA LOLMU Obs [3, 4]: 0%
Visual Weed Control (%) - 21 DAA LOLMU Obs [3, 5]: 0%
